Results on 26 molecules are retold here after US8263590B2, “Pyrimidine derivatives” (priority 2003, dated 2012).

This test deals with Jurkat T human leukemic cell line. Kind of test: In vitro T cell migration assay. It is filed as cell-based. The method, then:
Inhibitory activities of FAK inhibitors on the mobility of immune cells are secured by the following in vitro study. […] Cell mobility is appraised through the number of cells migrated into lower chamber by labeling with calcein-AM (Molecular Probes, Netherlands) at 8 μg/ml in HBSS for 1 h.

As for `CNS(=O)(=O)c1ccccc1Nc1nc(Nc2cc(N3CCOCC3)ccc2OC)ncc1Br` [Example 3-32], the IC50 (as a rule, the concentration at which inhibition is half-maximal) is 0.28 µM. Take `CNS(=O)(=O)c1ccccc1Nc1nc(Nc2ccc(OC3CCN(C)CC3)cc2OC)ncc1Br` [Example 3-33]: the IC50 is 0.09 µM.

`CNS(=O)(=O)c1ccccc1Nc1nc(Nc2cc(N3CCN(C(C)=O)CC3)ccc2OC)ncc1Br` [Example 3-34] yielded an IC50 of 0.13 µM.

As to `CNS(=O)(=O)c1ccccc1Nc1nc(Nc2cc(OCCN3CCOCC3)ccc2OC)ncc1Br` [Example 3-35], 0.8 µM corresponded to half-maximal inhibition (IC50). For `CNS(=O)(=O)c1ccccc1Nc1nc(Nc2ccc(N3CCN(C)CC3)cc2OC)ncc1Br` [Example 3-39], the IC50 is 1 µM. Molecule `CNS(=O)(=O)c1ccccc1Nc1nc(Nc2ccc(N3CCN(C(C)=O)CC3)cc2OC)ncc1Br` [Example 3-46] showed an IC50 of 0.3 µM. `CNS(=O)(=O)c1ccccc1Nc1nc(Nc2cc(N(C)C)ccc2OC)ncc1Br` [Example 3-64] yielded an IC50 of 0.21 µM. `CNS(=O)(=O)c1ccccc1Nc1nc(Nc2ccc(N3CCCC(C(N)=O)C3)cc2OC)ncc1Br` (centres unmarked) [Example 3-68] gave an IC50 of 1 µM. `CNS(=O)(=O)c1ccccc1Nc1nc(Nc2cc(N3CCC(N4CCCCC4)CC3)ccc2OC)ncc1Br` [Example 3-69] showed an IC50 of 0.58 µM. With `CNS(=O)(=O)c1ccccc1Nc1nc(Nc2cc(OC3CCN(C)CC3)ccc2OC)ncc1Br` [Example 3-76], the IC50 is 0.7 µM. In turn, `CNC(=O)c1ccccc1Nc1nc(Nc2cc(N3CCOCC3)ccc2OC)ncc1Cl` [Example 7-6] came in with an IC50 of 0.25 µM.

For `CNC(=O)c1ccccc1Nc1nc(Nc2ccc(N3CCC(NC)C3)cc2OC)ncc1Cl` (centres unmarked) [Example 7-12], inhibition was half-maximal at 0.31 µM (IC50). Take `CNC(=O)c1ccccc1Nc1nc(Nc2cc(N3CCN(C(C)=O)CC3)ccc2OC)ncc1Cl` [Example 7-30]: half-maximal inhibition (IC50) required 1 µM. Consider `CNC(=O)c1ccccc1Nc1nc(Nc2ccc(N3CCOCC3)cc2OC)ncc1Cl` [Example 7A, 2-[5-Chloro-2-(2-methoxy-4-morpholin-4-yl-phenylamino)-pyrimidin-4-ylamino]-N-methyl-benzamide], for which 0.04 µM corresponded to half-maximal inhibition (IC50). Molecule `CCNC(=O)c1ccccc1Nc1nc(Nc2ccc(N3CCOCC3)cc2OC)ncc1Cl` [Example 9-1] returned an IC50 of 0.6 µM. `CCNC(=O)c1ccccc1Nc1nc(Nc2ccc(OC3CCN(C)CC3)cc2OC)ncc1Cl` [Example 9-6] displayed an IC50 of 0.3 µM.

`COc1cc(N2CCOCC2)ccc1Nc1ncc(Cl)c(Nc2cccc3c2C(=O)N(C)C3)n1` [Example 12-1, 7-[5-Chloro-2-(2-methoxy-4-morpholin-4-yl-phenylamino)-pyrimidin-4-ylamino]-2-methyl-2,3-dihydro-isoindol-1-one]: half-maximal inhibition (IC50) was put at 0.22 µM. Regarding `COc1cc(N2CCOCC2)ccc1Nc1ncc(Cl)c(Nc2ccccc2C(=O)N(C)C)n1` [Example 14-1], the IC50 came out at 0.28 µM. In the case of `COc1cc(N2CCOCC2)ccc1Nc1ncc(Cl)c(Nc2ccccc2C(=O)NC(C)C)n1` [Example 14-2], the IC50 was 1 µM. On to `CNC1CCN(c2ccc(Nc3ncc(Cl)c(Nc4ccccc4S(=O)(=O)NC(C)C)n3)c(OC)c2)C1` (centres unmarked) [Example 19-1], for which the IC50 amounted to 0.29 µM. `COc1cc(N2CCOCC2)ccc1Nc1ncc(Cl)c(Nc2ccccc2S(=O)(=O)NC(C)C)n1` [Example 19-8] displayed an IC50 of 0.29 µM.

In turn, `COc1cc(N2CCC(N(C)C)C2)ccc1Nc1ncc(Cl)c(Nc2ccccc2S(=O)(=O)NC(C)C)n1` (centres unmarked) [Example 19-9] gave an IC50 of 0.3 µM. Under `CC(C)NS(=O)(=O)c1ccccc1Nc1nc(Nc2ccc(OC3CCN(C)CC3)cc2F)ncc1Cl` [Example 19-28] stands 0.3 µM; under `CNS(=O)(=O)c1ccccc1Nc1nc(Nc2ccc(N3CCOCC3)cc2OC)ncc1Cl` [Example 20-1], 0.25 µM; under `CNS(=O)(=O)c1ccccc1Nc1nc(Nc2ccc(N3CCN(C(C)=O)CC3)cc2OC)ncc1Cl` [Example 20-2], 0.75 µM. To `CNS(=O)(=O)c1ccccc1Nc1nc(Nc2ccc(N3CCN(C)CC3)cc2OC)ncc1Cl` [Example 20-6] belongs 49 µM.
